Assay results published in PMC11842588, “A first-in-class selective inhibitor of ERK1/2 and ERK5 overcomes drug resistance with a single-molecule strategy” (Signal Transduction and Targeted Therapy, 2025).

What was measured:
Experiment in all cases: Kinase profiling
Format in all cases: biochemical
PKCθ(h) = biological target: T1, PKCθ(h) (Homo sapiens, UniProt Q04759)
T1 construct: purchased Eurofins Cerep SA (KinaseProfiler)
Method: (§1) 380 kinases inhibitory activities of SKLB-D18 were conducted by Eurofins Cerep SA. The result was illustrated by kinase tree (http://www.kinhub.org/kinmap/).

Rse(h) = biological target: T2, Rse(h) (Homo sapiens, UniProt Q06418)
T2 construct: purchased Eurofins Cerep SA (KinaseProfiler)
Method: as §1

EphB4(h) = biological target: T3, EphB4(h) (Homo sapiens, UniProt P54760)
T3 construct: purchased Eurofins Cerep SA (KinaseProfiler)
Method: as §1

TrkA(h) = biological target: T4, TrkA(h) (Homo sapiens, UniProt P04629)
T4 construct: purchased Eurofins Cerep SA (KinaseProfiler)
Method: as §1

PI3 Kinase (p120g)(h) = biological target: T5, PI3 Kinase (p120g)(h) (Homo sapiens, UniProt P48736)
T5 construct: purchased Eurofins Cerep SA (KinaseProfiler)
Method: as §1

MYO3B(h) = biological target: T6, MYO3B(h) (Homo sapiens, UniProt Q8WXR4)
T6 construct: purchased Eurofins Cerep SA (KinaseProfiler)
Method: as §1

CDK2/cyclinE(h) = biological target: T7, CDK2/cyclinE(h) (Homo sapiens, UniProt P24941)
T7 construct: purchased Eurofins Cerep SA (KinaseProfiler)
Method: as §1

LKB1(h) = biological target: T8, LKB1(h) (Homo sapiens, UniProt Q15831)
T8 construct: purchased Eurofins Cerep SA (KinaseProfiler)
Method: as §1

PRP4(h) = biological target: T9, PRP4(h) (Homo sapiens, UniProt Q13523)
T9 construct: purchased Eurofins Cerep SA (KinaseProfiler)
Method: as §1

SAPK3(h) = biological target: T10, SAPK3(h) (Homo sapiens, UniProt P53778)
T10 construct: purchased Eurofins Cerep SA (KinaseProfiler)
Method: as §1

PASK(h) = biological target: T11, PASK(h) (Homo sapiens, UniProt Q96RG2)
T11 construct: purchased Eurofins Cerep SA (KinaseProfiler)
Method: as §1

TAF1L(h) = biological target: T12, TAF1L(h) (Homo sapiens, UniProt Q8IZX4)
T12 construct: purchased Eurofins Cerep SA (KinaseProfiler)
Method: as §1

PDHK4(h) = biological target: T13, PDHK4(h) (Homo sapiens, UniProt Q16654)
T13 construct: purchased Eurofins Cerep SA (KinaseProfiler)
Method: as §1

PKBα(h) = biological target: T14, PKBα(h) (Homo sapiens, UniProt P31749)
T14 construct: purchased Eurofins Cerep SA (KinaseProfiler)
Method: as §1

PRAK(h) = biological target: T15, PRAK(h) (Homo sapiens, UniProt Q8IW41)
T15 construct: purchased Eurofins Cerep SA (KinaseProfiler)
Method: as §1

MAP4K4(h) = biological target: T16, MAP4K4(h) (Homo sapiens, UniProt O95819)
T16 construct: purchased Eurofins Cerep SA (KinaseProfiler)
Method: as §1

IGF-1R(h) = biological target: T17, IGF-1R(h) (Homo sapiens, UniProt P08069)
T17 construct: purchased Eurofins Cerep SA (KinaseProfiler)
Method: as §1

MSK2(h) = biological target: T18, MSK2(h) (Homo sapiens, UniProt O75676)
T18 construct: purchased Eurofins Cerep SA (KinaseProfiler)
Method: as §1

EphA4(h) = biological target: T19, EphA4(h) (Homo sapiens, UniProt P54764)
T19 construct: purchased Eurofins Cerep SA (KinaseProfiler)
Method: as §1

ULK3(h) = biological target: T20, ULK3(h) (Homo sapiens, UniProt Q6PHR2)
T20 construct: purchased Eurofins Cerep SA (KinaseProfiler)
Method: as §1

Yes(h) = biological target: T21, Yes(h) (Homo sapiens, UniProt P07947)
T21 construct: purchased Eurofins Cerep SA (KinaseProfiler)
Method: as §1

BrSK2(h) = biological target: T22, BrSK2(h) (Homo sapiens, UniProt Q8IWQ3)
T22 construct: purchased Eurofins Cerep SA (KinaseProfiler)
Method: as §1

DCAMKL1(h) = biological target: T23, DCAMKL1(h) (Homo sapiens, UniProt O15075)
T23 construct: purchased Eurofins Cerep SA (KinaseProfiler)
Method: as §1

PAK5(h) = biological target: T24, PAK5(h) (Homo sapiens, UniProt Q9P286)
T24 construct: purchased Eurofins Cerep SA (KinaseProfiler)
Method: as §1

DYRK1B(h) = biological target: T25, DYRK1B(h) (Homo sapiens, UniProt Q9Y463)
T25 construct: purchased Eurofins Cerep SA (KinaseProfiler)
Method: as §1

DRAK2(h) = biological target: T26, DRAK2(h) (Homo sapiens, UniProt O94768)
T26 construct: purchased Eurofins Cerep SA (KinaseProfiler)
Method: as §1

STK32A(h) = biological target: T27, STK32A(h) (Homo sapiens, UniProt Q8WU08)
T27 construct: purchased Eurofins Cerep SA (KinaseProfiler)
Method: as §1

[1] = biological target: T28, PI3 Kinase (p110a/p85a)(h) (Homo sapiens, UniProt P42336)
T28 construct: purchased Eurofins Cerep SA (KinaseProfiler)
Method: as §1

NEK4(h) = biological target: T29, NEK4(h) (Homo sapiens, UniProt P51957)
T29 construct: purchased Eurofins Cerep SA (KinaseProfiler)
Method: as §1

MATK(h) = biological target: T30, MATK(h) (Homo sapiens, UniProt P42679)
T30 construct: purchased Eurofins Cerep SA (KinaseProfiler)
Method: as §1

HIPK4(h) = biological target: T31, HIPK4(h) (Homo sapiens, UniProt Q8NE63)
T31 construct: purchased Eurofins Cerep SA (KinaseProfiler)
Method: as §1

SRPK2(h) = biological target: T32, SRPK2(h) (Homo sapiens, UniProt P78362)
T32 construct: purchased Eurofins Cerep SA (KinaseProfiler)
Method: as §1

Flt3(h) = biological target: T33, Flt3(h) (Homo sapiens, UniProt P36888)
T33 construct: purchased Eurofins Cerep SA (KinaseProfiler)
Method: as §1

Plk4(h) = biological target: T34, Plk4(h) (Homo sapiens, UniProt O00444)
T34 construct: purchased Eurofins Cerep SA (KinaseProfiler)
Method: as §1

p70S6Kβ(h) = biological target: T35, p70S6Kβ(h) (Homo sapiens, UniProt Q9UBS0)
T35 construct: purchased Eurofins Cerep SA (KinaseProfiler)
Method: as §1

TRB2(h) = biological target: T36, TRB2(h) (Homo sapiens, UniProt Q92519)
T36 construct: purchased Eurofins Cerep SA (KinaseProfiler)
Method: as §1

Rsk1(h) = biological target: T37, Rsk1(h) (Homo sapiens, UniProt Q15418)
T37 construct: purchased Eurofins Cerep SA (KinaseProfiler)
Method: as §1

GCK(h) = biological target: T38, GCK(h) (Homo sapiens, UniProt Q12851)
T38 construct: purchased Eurofins Cerep SA (KinaseProfiler)
Method: as §1

MEK1(h) = biological target: T39, MEK1(h) (Homo sapiens, UniProt Q02750)
T39 construct: purchased Eurofins Cerep SA (KinaseProfiler)
Method: as §1

SIK3(h) = biological target: T40, SIK3(h) (Homo sapiens, UniProt Q9Y2K2)
T40 construct: purchased Eurofins Cerep SA (KinaseProfiler)
Method: as §1

Txk(h) = biological target: T41, Txk(h) (Homo sapiens, UniProt P42681)
T41 construct: purchased Eurofins Cerep SA (KinaseProfiler)
Method: as §1

T41 sequence (P42681 whole entry): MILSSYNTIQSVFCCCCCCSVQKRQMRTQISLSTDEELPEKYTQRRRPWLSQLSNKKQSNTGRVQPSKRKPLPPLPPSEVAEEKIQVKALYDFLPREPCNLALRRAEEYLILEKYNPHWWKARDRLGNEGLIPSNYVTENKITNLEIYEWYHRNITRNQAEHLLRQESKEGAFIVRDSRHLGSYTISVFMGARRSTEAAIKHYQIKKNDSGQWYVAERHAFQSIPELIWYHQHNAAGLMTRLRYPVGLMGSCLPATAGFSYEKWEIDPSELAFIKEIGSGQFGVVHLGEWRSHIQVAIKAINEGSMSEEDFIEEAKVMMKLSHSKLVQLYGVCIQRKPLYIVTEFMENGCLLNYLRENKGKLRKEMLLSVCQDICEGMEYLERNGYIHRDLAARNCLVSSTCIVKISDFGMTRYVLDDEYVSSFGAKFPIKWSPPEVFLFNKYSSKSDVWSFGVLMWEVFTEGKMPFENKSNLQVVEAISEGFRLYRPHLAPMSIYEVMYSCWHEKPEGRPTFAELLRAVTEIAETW
T23 sequence (O15075 whole entry): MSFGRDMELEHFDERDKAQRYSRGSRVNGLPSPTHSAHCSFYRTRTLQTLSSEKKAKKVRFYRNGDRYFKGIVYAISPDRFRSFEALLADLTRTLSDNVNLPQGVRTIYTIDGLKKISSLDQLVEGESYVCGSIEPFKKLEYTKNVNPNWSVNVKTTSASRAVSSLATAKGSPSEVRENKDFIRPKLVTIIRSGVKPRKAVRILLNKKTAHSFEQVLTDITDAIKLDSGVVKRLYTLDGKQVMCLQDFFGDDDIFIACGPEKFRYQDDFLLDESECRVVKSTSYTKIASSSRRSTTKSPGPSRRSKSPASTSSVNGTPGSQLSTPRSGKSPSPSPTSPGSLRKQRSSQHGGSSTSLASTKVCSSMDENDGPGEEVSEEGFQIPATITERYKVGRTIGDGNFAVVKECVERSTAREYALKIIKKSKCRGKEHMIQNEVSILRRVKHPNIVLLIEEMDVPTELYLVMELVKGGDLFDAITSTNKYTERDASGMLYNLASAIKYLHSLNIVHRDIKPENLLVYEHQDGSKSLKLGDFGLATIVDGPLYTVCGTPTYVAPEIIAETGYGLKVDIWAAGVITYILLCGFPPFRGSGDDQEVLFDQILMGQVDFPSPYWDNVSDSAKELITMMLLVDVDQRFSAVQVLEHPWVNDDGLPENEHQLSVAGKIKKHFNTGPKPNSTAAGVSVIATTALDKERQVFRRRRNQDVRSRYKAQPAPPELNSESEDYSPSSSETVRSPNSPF
T28 sequence (P42336 whole entry): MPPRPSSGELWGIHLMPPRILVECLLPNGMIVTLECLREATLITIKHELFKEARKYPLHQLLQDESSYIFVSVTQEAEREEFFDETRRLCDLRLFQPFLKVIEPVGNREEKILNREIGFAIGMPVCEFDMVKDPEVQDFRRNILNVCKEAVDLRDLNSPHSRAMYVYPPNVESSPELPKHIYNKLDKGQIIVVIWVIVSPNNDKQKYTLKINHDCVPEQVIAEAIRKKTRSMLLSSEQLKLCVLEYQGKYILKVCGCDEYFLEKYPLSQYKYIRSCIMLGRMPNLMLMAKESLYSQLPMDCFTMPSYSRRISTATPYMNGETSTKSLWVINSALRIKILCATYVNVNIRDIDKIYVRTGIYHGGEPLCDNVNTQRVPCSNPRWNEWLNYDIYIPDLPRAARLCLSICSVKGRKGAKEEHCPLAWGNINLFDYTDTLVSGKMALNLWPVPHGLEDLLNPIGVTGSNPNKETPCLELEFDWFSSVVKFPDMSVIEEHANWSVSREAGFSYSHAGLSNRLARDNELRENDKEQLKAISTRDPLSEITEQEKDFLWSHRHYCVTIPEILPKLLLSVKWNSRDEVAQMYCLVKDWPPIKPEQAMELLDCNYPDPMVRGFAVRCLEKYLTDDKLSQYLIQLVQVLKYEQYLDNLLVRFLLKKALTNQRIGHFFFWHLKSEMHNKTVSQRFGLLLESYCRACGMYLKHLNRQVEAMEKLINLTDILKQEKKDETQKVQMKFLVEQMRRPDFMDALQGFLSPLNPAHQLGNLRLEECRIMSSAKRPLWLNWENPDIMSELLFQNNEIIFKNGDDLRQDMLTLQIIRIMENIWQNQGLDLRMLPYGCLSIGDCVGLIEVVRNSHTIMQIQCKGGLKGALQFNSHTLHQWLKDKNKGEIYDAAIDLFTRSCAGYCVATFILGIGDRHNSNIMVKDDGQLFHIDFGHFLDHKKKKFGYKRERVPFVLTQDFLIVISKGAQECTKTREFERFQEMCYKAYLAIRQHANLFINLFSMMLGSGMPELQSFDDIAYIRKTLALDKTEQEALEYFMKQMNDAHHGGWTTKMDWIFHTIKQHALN
T28 sequence (P27986 whole entry partner): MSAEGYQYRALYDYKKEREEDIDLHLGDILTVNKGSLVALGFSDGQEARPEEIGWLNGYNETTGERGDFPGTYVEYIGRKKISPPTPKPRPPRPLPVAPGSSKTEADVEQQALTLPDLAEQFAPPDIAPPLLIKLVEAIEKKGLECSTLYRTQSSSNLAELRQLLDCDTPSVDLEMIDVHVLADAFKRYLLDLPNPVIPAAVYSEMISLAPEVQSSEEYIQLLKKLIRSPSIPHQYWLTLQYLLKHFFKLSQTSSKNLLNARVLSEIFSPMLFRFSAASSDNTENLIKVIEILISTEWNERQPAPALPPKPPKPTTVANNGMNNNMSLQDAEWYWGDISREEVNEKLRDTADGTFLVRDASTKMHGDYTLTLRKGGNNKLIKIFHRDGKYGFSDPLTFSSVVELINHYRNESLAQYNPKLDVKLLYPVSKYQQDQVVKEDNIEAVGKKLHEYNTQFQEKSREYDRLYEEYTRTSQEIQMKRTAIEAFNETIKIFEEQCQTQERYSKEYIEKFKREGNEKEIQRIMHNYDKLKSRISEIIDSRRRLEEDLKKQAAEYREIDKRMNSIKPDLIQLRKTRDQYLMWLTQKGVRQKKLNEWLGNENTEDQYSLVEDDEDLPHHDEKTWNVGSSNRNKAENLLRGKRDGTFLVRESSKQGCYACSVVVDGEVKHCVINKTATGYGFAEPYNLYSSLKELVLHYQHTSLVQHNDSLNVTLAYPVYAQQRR
T19 sequence (P54764 20-986): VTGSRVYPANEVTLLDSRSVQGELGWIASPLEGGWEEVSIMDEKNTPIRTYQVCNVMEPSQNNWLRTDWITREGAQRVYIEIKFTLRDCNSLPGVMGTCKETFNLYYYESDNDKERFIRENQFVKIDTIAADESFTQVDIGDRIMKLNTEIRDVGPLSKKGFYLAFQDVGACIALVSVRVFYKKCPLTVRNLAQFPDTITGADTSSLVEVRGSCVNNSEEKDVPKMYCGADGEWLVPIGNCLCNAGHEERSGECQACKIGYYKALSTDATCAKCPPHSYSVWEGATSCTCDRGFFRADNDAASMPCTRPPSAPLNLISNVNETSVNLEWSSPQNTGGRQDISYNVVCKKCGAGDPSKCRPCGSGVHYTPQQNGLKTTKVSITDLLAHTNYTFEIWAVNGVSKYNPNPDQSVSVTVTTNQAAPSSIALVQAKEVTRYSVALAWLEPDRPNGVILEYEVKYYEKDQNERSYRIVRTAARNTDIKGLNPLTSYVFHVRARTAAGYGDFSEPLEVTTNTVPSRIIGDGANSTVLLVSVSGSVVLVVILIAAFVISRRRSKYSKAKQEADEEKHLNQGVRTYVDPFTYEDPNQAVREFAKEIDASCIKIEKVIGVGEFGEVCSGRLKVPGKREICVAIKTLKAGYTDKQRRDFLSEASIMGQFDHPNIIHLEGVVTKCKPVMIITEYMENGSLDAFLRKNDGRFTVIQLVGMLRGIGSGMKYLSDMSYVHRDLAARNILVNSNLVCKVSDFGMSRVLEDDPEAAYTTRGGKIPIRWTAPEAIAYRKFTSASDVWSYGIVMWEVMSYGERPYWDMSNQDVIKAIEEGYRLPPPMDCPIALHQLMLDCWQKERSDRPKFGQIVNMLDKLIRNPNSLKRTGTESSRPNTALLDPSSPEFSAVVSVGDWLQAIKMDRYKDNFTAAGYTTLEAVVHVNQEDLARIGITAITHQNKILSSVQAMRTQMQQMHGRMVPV
T1 sequence (Q04759 whole entry): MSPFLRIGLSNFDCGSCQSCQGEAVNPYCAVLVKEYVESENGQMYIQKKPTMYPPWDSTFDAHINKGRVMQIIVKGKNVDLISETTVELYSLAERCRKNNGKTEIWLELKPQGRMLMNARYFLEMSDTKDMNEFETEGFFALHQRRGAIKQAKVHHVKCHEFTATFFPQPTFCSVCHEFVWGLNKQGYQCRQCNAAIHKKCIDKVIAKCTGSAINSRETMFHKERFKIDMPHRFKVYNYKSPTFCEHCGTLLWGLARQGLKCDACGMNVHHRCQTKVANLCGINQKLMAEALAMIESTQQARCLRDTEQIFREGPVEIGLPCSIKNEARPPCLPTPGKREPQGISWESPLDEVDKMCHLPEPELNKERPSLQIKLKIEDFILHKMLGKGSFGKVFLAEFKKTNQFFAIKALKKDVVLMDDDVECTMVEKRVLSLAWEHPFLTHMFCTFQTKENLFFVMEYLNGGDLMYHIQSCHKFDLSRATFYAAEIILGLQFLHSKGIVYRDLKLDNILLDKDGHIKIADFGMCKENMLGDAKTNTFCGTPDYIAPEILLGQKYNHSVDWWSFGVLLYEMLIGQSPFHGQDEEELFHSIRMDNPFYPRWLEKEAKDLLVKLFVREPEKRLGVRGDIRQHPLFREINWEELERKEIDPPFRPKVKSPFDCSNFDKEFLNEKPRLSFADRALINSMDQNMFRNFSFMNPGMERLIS
T36 sequence (Q92519 whole entry): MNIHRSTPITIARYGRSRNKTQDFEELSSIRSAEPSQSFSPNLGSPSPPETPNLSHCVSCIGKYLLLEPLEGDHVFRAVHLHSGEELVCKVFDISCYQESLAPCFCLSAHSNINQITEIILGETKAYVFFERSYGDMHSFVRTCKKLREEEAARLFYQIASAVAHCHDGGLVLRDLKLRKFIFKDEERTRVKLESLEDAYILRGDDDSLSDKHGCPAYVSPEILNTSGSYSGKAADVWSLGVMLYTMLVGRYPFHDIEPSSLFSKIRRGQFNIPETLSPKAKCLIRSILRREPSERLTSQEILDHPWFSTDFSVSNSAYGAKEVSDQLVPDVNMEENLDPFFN

Compound `CN(C)Cc1cccc(Nc2ncc(Cl)c(-c3csc(C(=O)NN4CCOCC4)c3)n2)c1` [SKLB-D18, 4-(5-chloro-2-((3-((dimethylamino)methyl)phenyl)amino)pyrimidin-4-yl)-N-morpholinothiophene-2-carboxamide] has an inhibition at 1 µM (PKCθ(h)) of 7%, an inhibition at 1 µM (Rse(h)) of 12% and an inhibition at 1 µM (EphB4(h)) of 9%. It also gave an inhibition at 1 µM (TrkA(h)) of 48%, an inhibition at 1 µM (PI3 Kinase (p120g)(h)) of 4% and an inhibition at 1 µM (MYO3B(h)) of 4%. For the same compound, the inhibition at 1 µM (CDK2/cyclinE(h)) was 48%, the inhibition at 1 µM (LKB1(h)) was 29% and the inhibition at 1 µM (PRP4(h)) was 19%. The inhibition at 1 µM (SAPK3(h)) was 25%, the inhibition at 1 µM (PASK(h)) was 13% and the inhibition at 1 µM (TAF1L(h)) was 53%. It also gave an inhibition at 1 µM (PDHK4(h)) of 5%, an inhibition at 1 µM (PKBα(h)) of 12% and an inhibition at 1 µM (PRAK(h)) of -2%. It also gave an inhibition at 1 µM (MAP4K4(h)) of 14%, an inhibition at 1 µM (IGF-1R(h)) of 7% and an inhibition at 1 µM (MSK2(h)) of 16%. The inhibition at 1 µM (EphA4(h)) was 6%, the inhibition at 1 µM (ULK3(h)) was 45% and the inhibition at 1 µM (Yes(h)) was 65%. It also gave an inhibition at 1 µM (BrSK2(h)) of 23%, an inhibition at 1 µM (DCAMKL1(h)) of 17% and an inhibition at 1 µM (PAK5(h)) of 26%. It also gave an inhibition at 1 µM (DYRK1B(h)) of 67%, an inhibition at 1 µM (DRAK2(h)) of 29% and an inhibition at 1 µM (STK32A(h)) of -3%. It also gave an inhibition at 1 µM [1] of -2%, an inhibition at 1 µM (NEK4(h)) of 66% and an inhibition at 1 µM (MATK(h)) of 2%. The inhibition at 1 µM (HIPK4(h)) was 67%, the inhibition at 1 µM (SRPK2(h)) was 9% and the inhibition at 1 µM (Flt3(h)) was 55%. The inhibition at 1 µM (Plk4(h)) was 38%, the inhibition at 1 µM (p70S6Kβ(h)) was 15% and the inhibition at 1 µM (TRB2(h)) was 71%. The inhibition at 1 µM (Rsk1(h)) was 51%, the inhibition at 1 µM (GCK(h)) was 57% and the inhibition at 1 µM (MEK1(h)) was 15%. The inhibition at 1 µM (SIK3(h)) was 22% and the inhibition at 1 µM (Txk(h)) was 26%.
